US20250154607A1, “ISOTHERMAL AMPLIFICATION OF PATHOGENS” (priority 2021, published 2025)

Key:
[1] = biological target: 9° Nm™ DNA polymerase (Thermococcus sp., UniProt Q56366, E143D); assay: APA amplification of Neisseria gonorrhea DNA with SDS, with or without HPβCD; type: biochemical; conditions: no protective agent (absence of βCD); 500 copies N. gonorrhea genomic DNA; APA at 68° C.
Method: This example provides SDS complexation analyses of the methods and compositions provided herein. […] Anionic detergent SDS at >0.01% is inhibitory to APA amplification of DNA, but the presence of the protective agent hydroxypropyl β-CD (βCD) allowed amplification to proceed despite≤0.2% SDS. The kinetics of hydroxypropyl β-CD sequestration of SDS were thus sufficiently rapid at a molar ratio of 2:1 (˜14 mM: −7 mM) to prevent 9° Nm™ DNA polymerase inactivation by SDS.
Standard APA reactions with or without 4% Sigma 389145 HPβCD containing “hot-start” CleanAmp™ deoxynucleotides (CAdNTP) and a sequence-specific molecular beacon detection probe were performed with lyophilized ((supplemented with dextran 40, Trehalose), FIG. 2B) or “wet” (no HPβCD, FIG. 2A) reagents including Tris pH 8.4, KCl, MgSO4, and (NH4)2SO4 Triton X-100, 9° Nm™ DNA polymerase, CAdNTP, primers and probe. For the lyophilized reactions, samples were prepared in 50 μl solution containing MgSO4, and (NH4)2SO4 with (shapes) or without (dashed) 500 copies of N. gonorrhea genomic DNA. After dried reagents were dissolved with the samples, various amounts of SDS were added, as indicated, and solutions were vortexed. For the wet reactions, 45 μl master mix containing all reaction components was added to 5 μl sample containing 1OX SDS (final concentration as indicated), with and without 500 copies of N. gonorrhea genomic DNA. Activation of CAdNTP by 2 minutes 90° C. was followed by APA at 68° C. for 10 minutes with detection of the NG amplification product by fluorescence collected every 15 seconds.

[2] = biological target: Taq polymerase (Thermus aquaticus, UniProt P19821); conditions: cited from earlier work
Taq polymerase, sequence (P19821 whole entry): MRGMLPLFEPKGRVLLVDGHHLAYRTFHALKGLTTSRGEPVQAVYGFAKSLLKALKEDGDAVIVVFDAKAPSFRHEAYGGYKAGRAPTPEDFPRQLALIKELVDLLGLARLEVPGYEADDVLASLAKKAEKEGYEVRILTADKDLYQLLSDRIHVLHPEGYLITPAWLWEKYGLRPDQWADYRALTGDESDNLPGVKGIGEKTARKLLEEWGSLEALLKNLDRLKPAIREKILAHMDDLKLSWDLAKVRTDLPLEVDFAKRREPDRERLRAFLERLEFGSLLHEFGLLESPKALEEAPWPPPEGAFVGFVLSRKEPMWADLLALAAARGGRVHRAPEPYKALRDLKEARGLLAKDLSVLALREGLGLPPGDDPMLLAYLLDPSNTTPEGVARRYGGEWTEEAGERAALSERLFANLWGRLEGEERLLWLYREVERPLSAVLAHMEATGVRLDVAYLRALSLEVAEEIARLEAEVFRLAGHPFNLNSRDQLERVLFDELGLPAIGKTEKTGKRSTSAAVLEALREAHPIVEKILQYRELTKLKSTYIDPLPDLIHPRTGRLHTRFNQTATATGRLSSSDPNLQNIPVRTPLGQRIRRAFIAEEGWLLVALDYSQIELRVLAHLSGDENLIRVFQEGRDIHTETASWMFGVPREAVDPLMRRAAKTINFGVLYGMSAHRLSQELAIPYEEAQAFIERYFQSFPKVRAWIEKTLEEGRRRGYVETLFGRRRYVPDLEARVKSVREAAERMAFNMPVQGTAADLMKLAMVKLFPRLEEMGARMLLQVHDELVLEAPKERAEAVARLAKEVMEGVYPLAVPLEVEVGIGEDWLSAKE

9° Nm™ DNA polymerase, sequence (Q56366 whole entry E143D): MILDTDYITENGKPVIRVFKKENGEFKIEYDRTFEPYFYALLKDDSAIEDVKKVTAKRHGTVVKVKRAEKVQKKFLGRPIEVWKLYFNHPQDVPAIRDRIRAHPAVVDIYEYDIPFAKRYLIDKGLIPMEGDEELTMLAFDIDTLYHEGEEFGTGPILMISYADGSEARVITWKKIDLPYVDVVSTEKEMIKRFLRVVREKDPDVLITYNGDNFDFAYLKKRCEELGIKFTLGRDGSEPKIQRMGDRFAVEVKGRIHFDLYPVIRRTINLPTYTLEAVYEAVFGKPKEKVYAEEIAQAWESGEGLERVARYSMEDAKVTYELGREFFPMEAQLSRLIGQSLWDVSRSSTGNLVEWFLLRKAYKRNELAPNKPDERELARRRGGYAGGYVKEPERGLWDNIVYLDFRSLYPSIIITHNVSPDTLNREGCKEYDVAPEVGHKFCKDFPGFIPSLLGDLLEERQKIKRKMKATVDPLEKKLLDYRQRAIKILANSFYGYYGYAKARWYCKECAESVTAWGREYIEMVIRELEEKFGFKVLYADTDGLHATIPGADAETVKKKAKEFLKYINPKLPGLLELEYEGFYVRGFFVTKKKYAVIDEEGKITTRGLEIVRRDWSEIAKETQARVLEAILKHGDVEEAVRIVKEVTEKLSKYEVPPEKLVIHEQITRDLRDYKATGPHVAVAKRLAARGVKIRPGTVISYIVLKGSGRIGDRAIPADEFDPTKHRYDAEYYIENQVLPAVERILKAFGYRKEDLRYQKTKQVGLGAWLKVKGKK

CCCCCCCCCCCCOS(=O)(=O)[O-].[Na+] [SDS, sodium dodecyl sulfate]
SDS concentration inhibitory to APA amplification of DNA [1]: > 0.01% | SDS concentration with inhibitory effect for PCR with Taq polymerase [2]: greater than 0.01 % (w/v)
